These results are taken from publication PMC10888688 (International Journal of Molecular Sciences, 2024).

Data set [1] concerns Gram-negative bacteria. Particulars: cited from earlier work. From the text: Currently, viable antibiotics available to mitigate infections caused by drug-resistant Gram-negative bacteria are highly limited. Thanatin, a 21-residue-long insect-derived antimicrobial peptide (AMP), is a promising lead molecule for the potential development of novel antibiotics. […] As a mode of action, cationic thanatin efficiently permeabilizes the LPS-outer membrane and binds to the periplasmic protein LptAm to inhibit outer membrane biogenesis. […] In this work, we have investigated shorter variants of thanatin in terms of their antibacterial activity, atomic resol ... || Previous studies have shown that residues at the N-terminus of thanatin ([…]) can be dispensable for antimicrobial activity. By contrast, deletion of residues at the C-terminus of thanatin drastically reduces activity against Gram-negative bacteria. […] However, antibacterial activity was ...

The conditions of data set [2]: cited from earlier work. From the text: Host defense AMPs contain a high potential to combat drug or multidrug-resistant bacterial pathogens. AMPs are evolutionary conserved molecules found in all kingdoms of life that are effective in fending off infections as a part of innate immunity. The broad-spectrum activity of AMPs provides vital lead molecules for the next generation of antibiotics. In particular, the ability of AMPs to kill Gram-negative bacteria can be exploited for the designing of new antibiotics against drug-resistant strains.

The subject of data set [3] is Gram-negative bacteria. Particulars: cited from earlier work. The text has this: (§1) Cationic AMPs are known ...
The source holds these as a separate data set.

The subject of data set [4] is outer membrane of Gram-negative bacteria. As to conditions: binding with negatively charged LPS; cited from earlier work.
Source text: as §1

The next data set deals with LptA and LptC complex. Particulars: binding of LptA; cited from earlier work. From the text: (§2) In this work, we have investigated shorter variants of thanatin in terms of their antibacterial activity, atomic resol ...
Data set [5] concerns periplasmic part of the β-taco domain of LptD. As to conditions: cited from earlier work.
Source text: as §2

The next data set has as its system LptAm. As to conditions: truncated functional variant of LptA; cited from earlier work. The text has this: The 21-residue-long thanatin was isolated from the hemolymph of the bacteria-treated insect Podisus maculiventris. A single disulfide bond between residues Cys11 and […] stabilizes the β-hairpin structure of thanatin with a flexible N-terminus region. […] Cationic AMPs are known ...

A further data set concerns the target T1, LptAm of E. coli (Escherichia coli, UniProt P0ADV1).
T1 construct: Recombinant LptAm (residues 28–159) of E. coli; His-tag; made in house; host or cells: E. coli BL21
Kind of data set: LptAm binding by ITC. Background: Isothermal titration calorimetry measures the heat released or taken up as one component is titrated into another.

In data set [6] the test system is Enterococcus faecalis ATCC 29212. The data set is described as follows: MIC, broth dilution, E. faecalis. The data set is classed as cell-based. As to conditions: MH broth, overnight at 37 °C, peptide 0 to 16 μM, OD600, E. faecalis ATCC 29212. As for the experimental part: (§3) Typically, an overnight bacterial culture was grown to the mid-log phase on a shaker at 183 rpm, at 37 °C, and then diluted in 2X Mueller Hinton (MH) broth (Millipore-Sigma^TM, Saint Louis, MO, USA) to achieve a final OD of 0.002. In a 96-well plate, 100 μL of the diluted bacterial culture along with 100 μL of peptide, concentrations ranging from 0 μM to 16 μM, was added and incubated overnight at 37 °C. Peptide concentrations were estimated by UV absorbance at a wavelength of 274 nm using a molar extinction coefficient (ε) of 1420 M^−1 cm^−1. Bacterial growth inhibition was determined by absorbance of 96 well plates at OD600 nm using a Cytation spectrophotometer (Agilent, Santa Clara, CA, USA).

The next data set relates to liver cell line Hep G2. Kind of data set: MTS cell survival assay, Hep G2. The data set is classed as cell-based, human. Particulars: OD490, overnight at 37 °C/5% CO2, Figure 1. As for the experimental part: (§4) Assays were conducted in complete media for cells Dulbecco’s Modified Eagle Medium (DMEM; Gibco; Waltham, MA USA, catalog number: 11995065) supplemented with 10% fetal bovine serum (FBS; Hyclone; Logan, UT, USA, catalog number: SV30160.03HI-1). […] All dose-response peptide dilutions were prepared in a U-bottom 96-well plate. 0.02 × 10^6 cells/50 µL of complete media were seeded overnight per well in a 96-well plate, and 105 µL of serum-free (sf) DMEM were added. Cells and peptides were incubated at 37 °C/5% CO2 overnight. Cell viability was checked using MTS assay and read after 30–45 min, and absorbance at OD490 was read using Tecan Infinite 200 Pro plate reader (Tecan, Mannedrof, Switzerland, CellTiter96®AQueous One Solution Cell Proliferation Assay (MTS); catalog number: G3580).
On the technique in general: Tetrazolium assays rely on reduction of a dye to a coloured formazan, in cell work by metabolically active cells.

For data set [7], the system named is Streptococcus pyogen ATCC 19615. The data set is described as follows: MIC, broth dilution, S. pyogenes. The data set is classed as cell-based, Streptococcus pyogenes. As to conditions: MH broth, overnight at 37 °C, peptide 0 to 16 μM, OD600, S. pyogenes ATCC 19615. As for the experimental part:
as §3
Background: In broth dilution the organism is exposed to a series of concentrations in liquid medium.

Data set [8] deals with Escherichia coli ATCC 25922. The data set is described as follows: MIC, broth dilution, E. coli. The data set is classed as cell-based. Particulars: MH broth, overnight at 37 °C, peptide 0 to 16 μM, OD600, E. coli ATCC 25922. As for the experimental part:
as §3

Data set [9] relates to human kidney cell line HEK 293T. Kind of data set: MTS cell survival assay, HEK 293T. The data set is classed as cell-based. Particulars: OD490, overnight at 37 °C/5% CO2, Figure 1. Here is the method: as §4
Data set [10] deals with Acinetobacter baumannii ATCC BAA-1798. The data set is described as follows: MIC, A. baumannii. The format is cell-based. Particulars: A. baumannii ATCC BAA-1798; broth dilution, overnight at 37 °C, peptide 0 to 16 μM. As for the experimental part: as §3

In brackets after ≈: the same amount, converted by molar mass. Entries after “also recorded” stand apart in the source; their conditions may differ. Ends that are not written are not given here.

For “thanatin analog with M21F substitution: thanatin analog with M21F substitution (GSKKPVPIIYCNRRTGKCQRF; ends and bridges not checked; cysteine pairing not given here; UniProt P55788 1-21, looked up, variant M21F)”, the “antibacterial activity of M21F analog, in words” value in the data set on Gram-negative bacteria [1] (compared with thanatin) is recorded as “better antibacterial activity”.
Turning to polymyxin B, the “nephrotoxicity, in words” value in data set [2] was “nephrotoxicity”.
As to “GSKKPVPIIYCNRRTGKCQRM (disulfide) [thanatin]”, the “effect in animal models of sepsis and infections, in words” value in the data set with Gram-negative bacteria [3] was “lowering of Gram-negative bacterial loads and also neutralization of toxicity of LPS”. Also, in [4], the “outer membrane permeabilization, in words” value is “efficient permeabilization of the outer membrane of Gram-negative bacteria”. Besides, in the data set with Gram-negative bacteria [1] (Enterobacter group, e.g., E. coli and K. pneumoniae, background statement, no reference given), the “activity against Gram-negative pathogens, in words (abstract)” value was “extremely potent”. Further, the “activity against Gram-negative bacteria, in words” value in the data set with Gram-negative bacteria [1] (including drug-resistant strains of E. coli and K. pneumoniae) is “potent activity”. In addition, in the data set with LptA and LptC complex, the “inhibition of LPS transport, in words” value is “disrupting LptA and LptC complex”. For the same compound, the “LptD binding, in words” value in data set [5] is “binds to the periplasmic part of the β-taco domain of LptD”. Also, in the data set on LptAm, the “LptAm binding, in words” value is listed as “high-affinity binding with LptAm”.
`CC[C@H](C)[C@H](NC(=O)[C@@H](NC(=O)[C@@H]1CCCN1C(=O)[C@@H](N)C(C)C)[C@@H](C)CC)C(=O)N[C@@H](Cc1ccc(O)cc1)C(=O)N[C@H]1CSSC[C@@H](C(=O)N[C@@H](CCC(N)=O)C(=O)N[C@@H](CCCNC(=N)N)C(=O)N[C@@H](Cc2ccccc2)C(N)=O)NC(=O)[C@H](CCCCN)NC(=O)[C@@H](CCCCN)NC(=O)[C@H]([C@@H](C)O)NC(=O)[C@H](CCCNC(=N)N)NC(=O)[C@H](CCCNC(=N)N)NC(=O)[C@H](CC(N)=O)NC1=O` [VF16]: at LptAm of E. coli, the affinity, expressed as Kd, was 250 nM. The “MIC (EF)” value in data set [6] is reported as more than 16 µM. In the data set with liver cell line Hep G2, the “toxicity / cell survival, Hep G2, in words” value was “did not show any detectable toxicity; also recorded: essentially non-toxic as both the cell lines demonstrate a high percentage of survival”. Moreover, the “MIC (SP)” value in data set [7] turned out to be 1 µM (≈ 2.02 µg/mL). Also, the “MIC (EC)” value in [8] was 0.5 µM (≈ 1.01 µg/mL). Also, the “toxicity / cell survival, HEK 293T, in words” value in data set [9] is reported as “did not show any detectable toxicity; also recorded: essentially non-toxic as both the cell lines demonstrate a high percentage of survival”. For the same compound, the “MIC (AB)” value in data set [10] is reported as more than 16 µM.
